Legend:
recombinant PDK-1 = target: T1, recombinant PDK-1 (Homo sapiens, UniProt O15530); assay: PDK-1 kinase activity (Upstate kit, cell-free); type: biochemical
T1 construct: purchased Upstate (Lake Placid, N.Y.)
T1 sequence (O15530 1-556): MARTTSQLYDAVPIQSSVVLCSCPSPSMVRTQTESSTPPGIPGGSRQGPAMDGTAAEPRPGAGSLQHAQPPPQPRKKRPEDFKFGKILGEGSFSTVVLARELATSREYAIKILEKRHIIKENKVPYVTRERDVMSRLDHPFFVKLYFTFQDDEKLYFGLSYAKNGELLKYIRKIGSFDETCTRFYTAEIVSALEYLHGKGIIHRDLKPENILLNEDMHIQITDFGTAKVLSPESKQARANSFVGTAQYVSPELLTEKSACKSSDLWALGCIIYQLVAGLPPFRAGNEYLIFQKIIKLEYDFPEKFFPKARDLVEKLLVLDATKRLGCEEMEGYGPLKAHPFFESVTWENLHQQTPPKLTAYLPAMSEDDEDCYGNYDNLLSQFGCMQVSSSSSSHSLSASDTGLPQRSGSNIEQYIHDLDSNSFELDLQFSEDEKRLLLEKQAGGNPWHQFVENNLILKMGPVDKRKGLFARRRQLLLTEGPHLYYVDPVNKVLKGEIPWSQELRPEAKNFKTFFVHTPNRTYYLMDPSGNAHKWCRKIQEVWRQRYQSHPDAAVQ
Procedure: PDK-1 kinase activity This in vitro assay was performed using a PDK-1 kinase assay kit (Upstate, Lake Placid, N.Y.) according to the vendor's instructions. This cell-free assay is based on the ability of recombinant PDK-1, in the presence of DMSO vehicle or the test agent, to activate its downstream kinase serum- and glucocorticoid-regulated kinase (SGK.) which, in turn, phosphorylates the Akt/SGK-specific peptide substrate RPRAATF with [γ-^32]-ATP. […] The reported values represent the means of two independent determinations.

NCI-H226 = assay: NCI DTP cell line screen (SRB), Non-Small Cell Lung Cancer; type: cell-based, human
Procedure: Screening of compounds 70 and 71 against several cancer cell lines The human tumor cell lines of the cancer screening panel are grown in RPMI 1640 medium containing 5% fetal bovine serum and 2 mM L-glutamine. For a typical screening experiment, cells are inoculated into 96 well microtiter plates in 100 μL at plating densities ranging from 5,000 to 40,000 cells/well depending on the doubling time of individual cell lines. After cell inoculation, the microtiter plates are incubated at 37° C., 5% CO2, 95% air and 100% relative humidity for 24 h prior to addition of experimental drugs.
After 24 h, two plates of each cell line are fixed in situ with TCA, to represent a measurement of the cell population for each cell line at the time of drug addition (Tz). Experimental drugs are solubilized in dimethyl sulfoxide at 400-fold the desired final maximum test concentration and stored frozen prior to use. At the time of drug addition, an aliquot of frozen concentrate is thawed and diluted to twice the desired final maximum test concentration with complete medium containing 50 μg/ml gentamicin. Additional four, 10-fold or ½ log serial dilutions are made to provide a total of five drug concentrations plus control. Aliquots of 100 μl of these different drug dilutions are added to the appropriate microtiter wells already containing 100 μl of medium, resulting in the required final drug concentrations.
Following drug addition, the plates are incubated for an additional 48 h at 37° C., 5% CO2, 95% air, and 100% relative humidity. For adherent cells, the assay is terminated by the addition of cold TCA. Cells are fixed in situ by the gentle addition of 50 μl of cold 50% (w/v) TCA (final concentration, 10% TCA) and incubated for 60 minutes at 4° C. The supernatant is discarded, and the plates are washed five times with tap water and air dried. Sulforhodamine B (SRB) solution (100 μl) at 0.4% (w/v) in 1% acetic acid is added to each well, and plates are incubated for 10 minutes at room temperature. After staining, unbound dye is removed by washing five times with 1% acetic acid and the plates are air dried. Bound stain is subsequently solubilized with 10 mM trizma base, and the absorbance is read on an automated plate reader at a wavelength of 515 nm. For suspension cells, the methodology is the same except that the assay is terminated by fixing settled cells at the bottom of the wells by gently adding 50 μl of 80% TCA (final concentration, 16% TCA). Using the seven absorbance measurements [time zero, (Tz), control growth, (C), and test growth in the presence of drug at the five concentration levels (Ti)], the percentage growth is calculated at each of the drug concentrations levels. Percentage growth inhibition is calculated as: [(Ti−Tz)/(C−Tz)]×100 for concentrations for which Ti>/=Tz [(Ti−Tz)/Tz]×100 for concentrations for which Ti<Tz
Three dose response parameters are calculated for each experimental agent. […] The drug concentration resulting in total growth inhibition (TGI) is calculated from Ti=Tz. […] Values are calculated for each of these three parameters if the level of activity is reached; however, if the effect is not reached or is exceeded, the value for that parameter is expressed as greater or less than the maximum or minimum concentration tested.
The methods described were used to test compounds 70 and 71 on a panel of sixty cell lines under a screening service provided by the Developmental Therapeutics Program at the National Institutes of Health. Shown in FIG. 1C are 1, RPMI-8226 leukemia cells; 2; NCI-H322M non-small cell lung cancer cells; 3, HT29 colon cancer cells; 4, U251 CNS cancer cells; 5, SK-MEL-28 melanoma cancer cells; 6, SK-OV-3 ovarian cancer cells; 7, RXF 393 renal cancer cells; 8, PC-3 prostate cancer cells; 9, MDA-MB-231 breast cancer cells.

BT-549 = assay: NCI DTP cell line screen (SRB), Breast Cancer; type: cell-based

## NCC(=O)Nc1ccc(-n2nc(C(F)(F)F)cc2-c2ccc3c(ccc4ccccc43)c2)cc1 [Compound 70, 2-Amino-N-{4-[5-(2-phenanthrenyl)-3-(trifluoromethyl)-1H-pyrazol-1-yl]-phenyl}-acetamide]
Recombinant PDK-1
  increase in potency over compound 59 (PDK-1 inhibition): two
NCI-H226; Log10 Concentration −4.0
  Percent Growth: −48%
NCI-H226; Log10 Concentration −5.0
  Percent Growth: −58%
NCI-H226; Log10 Concentration −6.0
  Percent Growth: 59%
NCI-H226; Log10 Concentration −7.0
  Percent Growth: 98%
NCI-H226; Log10 Concentration −8.0
  Percent Growth: 100%
NCI-H226; in M (unit assumed)
  TGI: 3.21E−06
BT-549
  TGI: 2.95E−06
BT-549; Log10 Concentration −4.0
  Percent Growth: −60%
BT-549; Log10 Concentration −5.0
  Percent Growth: −71%
BT-549; Log10 Concentration −6.0
  Percent Growth: 63%
BT-549; Log10 Concentration −7.0
  Percent Growth: 86%
BT-549; Log10 Concentration −8.0
  Percent Growth: 90%
